Measurements published in the NIST ThermoML archive (doi:10.1021/je800517r).
Several values for one entry are separate records, joined by “and”; a condition that tells them apart may be missing. Equal entries are not always repeated.

Experiment: activity coefficient (dimensionless); of the first substance listed, at infinite dilution; xn = mol fraction of the nth substance listed
Conditions: Liquid, comparative ebulliometry, circulation still, and differential distillation method, x1 = 0

CC(=O)N(C)C [N,N-dimethylethanamide] + O
Conditions | activity coefficient
343.15 K | 1.27
343.51 K | 1.29
349.03 K | 1.46
351.15 K | 1.37
353.5 K | 1.72 and 1.79
363.87 K | 2.06 and 2.24
370.86 K | 2.12
372.28 K | 2.05

CNC(C)=O [N-methylacetamide] + O
Conditions | activity coefficient
333.15 K | 1.7
343.15 K | 1.78
353.15 K | 1.82

CNC=O [N-methylformamide] + O
Conditions | activity coefficient
333.15 K | 1.37
343.15 K | 1.42
353.15 K | 1.44
372.65 K | 1.65

CN(C)C=O [dimethylformamide] + O
Conditions | activity coefficient
343.73 K | 1.23
349.05 K | 1.27
353.45 K | 1.3
357.91 K | 1.3
358.5 K | 1.36
363.82 K | 1.35
368.38 K | 1.59
371.62 K | 1.54
372 K | 1.66
